Experiment: Drug elution in PBS over 0-7 days (HPLC of supernatant)
Assay type: physicochemical
Conditions: 1.2 ml PBS, 37 degrees centigrade, 250 rpm
Experimental: The microspheres of Example 7 and the elongated solid composition of Example 8 were tested for drug release. Samples of the Everolimus containing microspheres, averaging 4.0 mg, were placed in Eppendorf tubes with 1.2 ml of phosphate buffered saline (PBS) and suspended with agitation. Samples of the elongated solid composition containing Everolimus of 12 mm length, averaging 0.51 mg were placed in Eppendorf tubes with 1.2 ml of phosphate buffered saline (PBS) and suspended with agitation. For comparison, samples of the drug used to produce the microspheres, averaging 4.1 mg, were also placed in Eppendorf tubes with 1.2 ml of PBS and suspended with agitation. The tubes were incubated at 37 degrees centigrade with mixing at 250 rpm. At time intervals of 0, 1, 2, 4 and 7 days a tube containing sample was centrifuged and the supernatant removed for drug analysis. For each time point, 10 microliters of supernatant was placed into 75:25 acetonitrile and water solvent to solubilize the drug and the resultant drug content was analyzed by HPLC. The HPLC method used a C18 reverse phase column and UV detection and was calibrated to a standard curve of drug. […] In contrast, the Everolimus containing microspheres released drug at a slower rate, with 0.06% of the drug released at 7 days. Similar to the microspheres, the elongated solid composition containing Everolimus released drug at a slow rate, with 0.04% of the drug released at 7 days.
The microspheres of Example 11 and the elongated solid composition of Example 12 were tested for drug release. […] For each time point, 10 microliters of supernatant was placed into 75:25 acetonitrile and water solvent to solubilize the drug and the resultant drug content was analyzed by HPLC. […]
The elongated solid composition of Example 15 was tested for drug release. […] For each time point, 10 microliters of supernatant was placed into 50:50 acetonitrile and methanol solvent to solubilize the drug and the resultant drug content was analyzed by HPLC. […]

CO[C@H]1C[C@@H]2CC[C@@H](C)[C@@](O)(O2)C(=O)C(=O)N2CCCC[C@H]2C(=O)O[C@H]([C@H](C)C[C@@H]2CC[C@@H](OCCO)[C@H](OC)C2)CC(=O)[C@H](C)/C=C(\C)[C@@H](O)[C@@H](OC)C(=O)[C@H](C)C[C@H](C)/C=C/C=C/C=C/1C [Everolimus]
drug released at 7 days (7 days): 0.45%

CC1(C)O[C@@H]2C[C@H]3[C@@H]4C[C@H](F)C5=CC(=O)C=C[C@]5(C)[C@@]4(F)[C@@H](O)C[C@]3(C)[C@]2(C(=O)CO)O1 [fluocinolone, fluocinolone acetonide]
drug released initially at 0 days (initial burst release) (0 days): 5.3% | drug released, average at subsequent time points (1, 2, 4 and 7 days): 0.9%
